The values that follow come from US9006228B2 (Merck Sharp & Dohme Corp., priority 2011, dated 2015).

The assay addresses T1, human GPR119 (Homo sapiens, UniProt Q8TDV5).
T1 sequence (Q8TDV5 1-308 limits assumed): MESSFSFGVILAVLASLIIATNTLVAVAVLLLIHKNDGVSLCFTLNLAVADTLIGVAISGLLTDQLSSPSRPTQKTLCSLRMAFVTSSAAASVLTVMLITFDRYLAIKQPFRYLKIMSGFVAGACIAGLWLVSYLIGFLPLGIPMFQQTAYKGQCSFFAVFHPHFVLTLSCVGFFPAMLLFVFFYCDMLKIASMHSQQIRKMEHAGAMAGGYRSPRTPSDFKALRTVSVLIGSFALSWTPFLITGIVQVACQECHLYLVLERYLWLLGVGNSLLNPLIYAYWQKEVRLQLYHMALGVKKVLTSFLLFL
Put plainly: Measurement of GPR119 signaling (cAMP assay; LANCE kit or HTRF) in HEK293 cells stably transfected with human GPR119. The assay is classed as cell-based. The following applies: agonist-stimulated cAMP in HEK293 cells expressing human GPR119. A digest of the protocol:
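LANCE method: cAMP detected with Eu-chelate/biotin-cAMP tracer, 3 h, read at 665 nm, converted via cAMP standards; basal from DMSO, maximum from internal agonist, 4-parameter fit.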
For the molecule `CCc1cnc(N2CCC([C@H]3C[C@H]3COCc3ccc(-c4cccnn4)c(F)c3)CC2)nc1` [Example 114, 3-{4-[({(1R,2R)-2-[1-(5-ethylpyrimidin-2-yl)piperidin-4-yl]cyclopropyl}methoxy)methyl]-2-fluorophenyl}pyridazine], the half-maximal effective concentration (EC50) is 3 nM. In other words, the single-digit nanomolar range.
To `CCc1cnc(N2CCC([C@H]3C[C@H]3COCc3ccc(-c4ccnnc4)c(F)c3)CC2)nc1` [Example 115, 4-{4-[({(1R,2R)-2-[1-(5-ethylpyrimidin-2-yl)piperidin-4-yl]cyclopropyl}methoxy)methyl]-2-fluorophenyl}pyridazine] belongs 1 nM; to `CCc1cnc(N2CCC([C@H]3C[C@H]3COCc3ccc(-c4cnc(N)nc4)c(F)c3)CC2)nc1` [Example 118, 5-{4-[({(1R,2R)-2-[1-(5-ethylpyrimidin-2-yl)piperidin-4-yl]cyclopropyl}methoxy)methyl]-2-fluorophenyl}pyrimidin-2-amine], 5.9 nM.
The same measure for `CCc1cnc(N2CCC([C@H]3C[C@H]3COCc3ccc(-c4cncnc4)cc3)CC2)nc1` [Example 120]: 1.9 nM; for `CCc1cnc(N2CCC([C@H]3C[C@H]3COCc3ccc(-c4ccnnc4)cc3)CC2)nc1` [Example 121]: 1.9 nM.
`CCc1cnc(N2CCC([C@H]3C[C@H]3COCc3ccc(-c4cccnn4)cc3)CC2)nc1` [Example 122] returned an EC50 of 1.1 nM.
Regarding `CCc1cnc(N2CCC([C@H]3C[C@H]3COCc3ccc(-c4cnccn4)cc3)CC2)nc1` [Example 123], the response was half-maximal at 9.8 nM (EC50).
Molecule `CCS(=O)(=O)c1ccc(COC[C@@H]2C[C@@H]2C2CCN(c3ncc(COC)cn3)CC2)c(F)c1` [Example 127, 2-(4-((1R,2R)-2-(((4-(ethylsulfonyl)-2-fluorobenzyl)oxy)methyl)cyclopropyl)piperidin-1-yl)-5-(methoxymethyl)pyrimidine] returned an EC50 of 2.8 nM.
With `COCc1cnc(N2CCC([C@H]3C[C@H]3COCc3cc(F)c(S(C)(=O)=O)c(F)c3)CC2)nc1` [Example 128, 2-(4-((1R,2R)-2-(((3,5-difluoro-4-(methylsulfonyl)benzyl)oxy)methyl)cyclopropyl)piperidin-1-yl)-5-(methoxymethyl)pyrimidine], the response was half-maximal at 4.5 nM (EC50).
To `CCOc1cnc(N2CCC([C@H]3C[C@H]3COCc3ccc(S(C)(=O)=O)c(F)c3)CC2)nc1` [Example 129, 5-ethoxy-2-(4-((1R,2R)-2-(((3-fluoro-4-(methylsulfonyl)benzyl)oxy)methyl)cyclopropyl)piperidin-1-yl)pyrimidine] belongs 1.65 nM; to `COCc1cnc(N2CCC([C@H]3C[C@H]3COCc3ccc(-n4cnnn4)c(F)c3)CC2)nc1` [Example 132, 2-(4-((1R,2R)-2-((3-fluoro-4-(1H-tetrazol-1-yl)benzyloxy)methyl)cyclopropyl)piperidin-1-yl)-5-(methoxymethyl)pyrimidine], 1.1 nM; to `CCc1cnc(N2CCC([C@H]3C[C@H]3COCc3ccc(-n4cnnn4)cn3)CC2)nc1` [Example 133, 2-(4-((1R,2R)-2-(((5-(1H-tetrazol-1-yl)pyridin-2-yl)methoxy)methyl)cyclopropyl)piperidin-1-yl)-5-ethylpyrimidine], 5.6 nM.
`CC(C)c1noc(N2CCC([C@H]3C[C@H]3COCc3ccc(-n4cnnn4)cc3F)CC2)n1` [Example 134, 5-(4-((1R,2R)-2-((2-fluoro-4-(1H-tetrazol-1-yl)benzyloxy)methyl)cyclopropyl)piperidin-1-yl)-3-isopropyl-1,2,4-oxadiazole] had an EC50 of 1.7 nM. This EC50 lies about 3.3-fold lower than the previous one.
To `COCc1noc(N2CCC([C@H]3C[C@H]3COCc3ccc(-n4cnnn4)cc3F)CC2)n1` [Example 135, 5-(4-((1R,2R)-2-((2-fluoro-4-(1H-tetrazol-1-yl)benzyloxy)methyl)cyclopropyl)piperidin-1-yl)-3-(methoxymethyl)-1,2,4-oxadiazole] belongs 9.8 nM.
As for `CC1(OC(=O)N2CCC([C@H]3C[C@H]3COCc3ccc(-n4cnnn4)cc3F)CC2)CC1` [Example 136, 1-methylcyclopropyl 4-((1R,2R)-2-((2-fluoro-4-(1H-tetrazol-1-yl)benzyloxy)methyl)cyclopropyl)piperidine-1-carboxylate], it took 4.8 nM to reach a half-maximal effect (EC50). This EC50 lies about 2-fold lower than the previous one.
The same measure for `CC(C)c1noc(N2CCC([C@H]3C[C@H]3COCc3ccc(CC(=O)N(C)C)cc3F)CC2)n1` [Example 137, 2-(3-fluoro-4-((((1R,2R)-2-(1-(3-isopropyl-1,2,4-oxadiazol-5-yl)piperidin-4-yl)cyclopropyl)methoxy)methyl)phenyl)-N,N-dimethylacetamide]: 1.6 nM; for `COC1CN(C(=O)Cc2ccc(COC[C@@H]3C[C@@H]3C3CCN(c4nc(C(C)C)no4)CC3)c(F)c2)C1` [Example 138, 2-(3-fluoro-4-((((1R,2R)-2-(1-(3-isopropyl-1,2,4-oxadiazol-5-yl)piperidin-4-yl)cyclopropyl)methoxy)methyl)phenyl)-1-(3-methoxyazetidin-1-yl)ethanone]: 2.2 nM.
`CC(C)c1noc(N2CCC([C@H]3C[C@H]3COCc3ccc(CC(=O)N4CC(F)C4)cc3F)CC2)n1` [Example 139, 2-(3-fluoro-4-((((1R,2R)-2-(1-(3-isopropyl-1,2,4-oxadiazol-5-yl)piperidin-4-yl)cyclopropyl)methoxy)methyl)phenyl)-1-(3-fluoroazetidin-1-yl)ethanone]: a half-maximal response (EC50) required 0.89 nM.
To `CC(C)c1noc(N2CCC([C@H]3C[C@H]3COCc3ccc(CC(=O)N(C)C)c(F)c3)CC2)n1` [Example 140, 2-(2-fluoro-4-((((1R,2R)-2-(1-(3-isopropyl-1,2,4-oxadiazol-5-yl)piperidin-4-yl)cyclopropyl)methoxy)methyl)phenyl)-N,N-dimethylacetamide] belongs 0.66 nM; to `CC(C)c1noc(N2CCC([C@H]3C[C@H]3COCc3ccc(CC(=O)N4CCOCC4)c(F)c3)CC2)n1` [Example 141, 2-(2-fluoro-4-((((1R,2R)-2-(1-(3-isopropyl-1,2,4-oxadiazol-5-yl)piperidin-4-yl)cyclopropyl)methoxy)methyl)phenyl)-1-morpholinoethanone], 1.2 nM.
To `COC1CN(C(=O)Cc2ccc(COC[C@@H]3C[C@@H]3C3CCN(c4nc(C(C)C)no4)CC3)cc2F)C1` [Example 142, 2-(2-fluoro-4-((((1R,2R)-2-(1-(3-isopropyl-1,2,4-oxadiazol-5-yl)piperidin-4-yl)cyclopropyl)methoxy)methyl)phenyl)-1-(3-methoxyazetidin-1-yl)ethanone] belongs 0.95 nM; to `CC(C)c1noc(N2CCC([C@H]3C[C@H]3COCc3ccc(CC(=O)N4CC(O)C4)c(F)c3)CC2)n1` [Example 143, 2-(2-fluoro-4-((((1R,2R)-2-(1-(3-isopropyl-1,2,4-oxadiazol-5-yl)piperidin-4-yl)cyclopropyl)methoxy)methyl)phenyl)-1-(3-hydroxyazetidin-1-yl)ethanone], 6.3 nM; to `COCc1noc(N2CCC([C@H]3C[C@H]3COCc3ccc(CC(=O)N4CCC4)c(F)c3)CC2)n1` [Example 144, 1-(azetidin-1-yl)-2-(2-fluoro-4-((((1R,2R)-2-(1-(3-(methoxymethyl)-1,2,4-oxadiazol-5-yl)piperidin-4-yl)cyclopropyl)methoxy)methyl)phenyl)ethanone], 11.4 nM.
`COCc1cnc(N2CCC([C@H]3C[C@H]3COCc3ccc(CC(=O)N4CCC4)cc3F)CC2)nc1` [Example 145, 1-(azetidin-1-yl)-2-(3-fluoro-4-((((1R,2R)-2-(1-(5-(methoxymethyl)pyrimidin-2-yl)piperidin-4-yl)cyclopropyl)methoxy)methyl)phenyl)ethanone] registered a half-maximal effective concentration (EC50) of 5.16 nM.
The same measure for `COCc1cnc(N2CCC([C@H]3C[C@H]3COCc3ccc(CC(=O)N4CCOCC4)cc3F)CC2)nc1` [Example 146, 2-(3-fluoro-4-((((1R,2R)-2-(1-(5-(methoxymethyl)pyrimidin-2-yl)piperidin-4-yl)cyclopropyl)methoxy)methyl)phenyl)-1-morpholinoethanone]: 3.23 nM; for `COCc1cnc(N2CCC([C@H]3C[C@H]3COCc3ccc(CC(=O)N(C)C)cc3F)CC2)nc1` [Example 147, 2-(3-fluoro-4-((((1R,2R)-2-(1-(5-(methoxymethyl)pyrimidin-2-yl)piperidin-4-yl)cyclopropyl)methoxy)methyl)phenyl)-N,N-dimethylacetamide]: 2.52 nM.
To `COCc1cnc(N2CCC([C@H]3C[C@H]3COCc3ccc(CC(=O)N4CC(F)C4)cc3F)CC2)nc1` [Example 148, 2-(3-fluoro-4-((((1R,2R)-2-(1-(5-(methoxymethyl)pyrimidin-2-yl)piperidin-4-yl)cyclopropyl)methoxy)methyl)phenyl)-1-(3-fluoroazetidin-1-yl)ethanone] belongs 3.56 nM.
